From patent US20070207981A1, “MICRO-ENCAPSULATION OF VOLATILE COMPOUNDS INTO CYCLODEXTRINS: A NEW TECHNOLOGY TO REDUCE POST HARVEST LOSSES” (priority 2006, published 2007)

Tests used:
[1] = system: Penicillium sp.; assay: Growth of Penicillium sp. in vitro in the presence of pure volatiles; format: cell-based; details: for Penicillium fungal development delayed: after 7 days at 23° C.
Description: (§1) In accordance with still another embodiment of the present invention, growth of Penicillium sp. and Aspergillus Niger was evaluated in vitro in the presence of hexanal, acetaldehyde and 2E-hexenal. The fungistatic and fungicidal effects of the pure volatiles were evaluated and presented below.

[2] = oral, mammalian; cited from earlier work
[3] = system: Alternaria alternata; assay: Growth of A. alternata exposed to volatile vapour in closed jars at 23° C.; details: 7 days at 23° C.; for concentration that completely inhibited / avoided A. alternata growth: headspace concentration
Description: (§2) Fourteen-day-old surface-plated cultures of Colletotricumn acutatum, Alternaria alternata and Botrytis cinerea in plastic Petri dishes (9 cm diameter), were filled aseptically with PDA medium (Potato Dextrose Agar) (Sigma-Aldrich Corp. (Saint Louis, Mo.)), and mixed with a few drops of sterile distilled water. Ten mL of each were collected inside plastic tubes which were shaken hard to dislodge spores from mycelia. The spores and cell suspensions were then filtered with sterile cheesecloth to remove debris such as mycelia and condensed-agar fragments and the aliquot was concentrated to 10^6 c.f.u./mL (spore*mL^−1), which were counted by the Neubauer improved method (Bright-Line Hemacytometer, Hausser Scientific, Horsham, Pa.).
(§3) Smaller Petri dishes (5.5 cm diameter) were also filled aseptically with PDA. Upon solidification of the agar medium, a drop of spores of each suspension was inserted as a drop in the centre of the well with a 100 μL Oxford Autoclavable Benchmate Pipette (Nichiryo, Japan). Finally, the Petri dishes were placed inside 1 L-glass jars which were closed with twist-off tops and stored at 23° C. These were used as the controls.
(§4) Other jars were modified for inserting and withdrawing of the volatiles obtained from the bioassays. For that, jars tops were modified by introducing a septum through which the volatile was inserted on a small piece of glass which was suspended 4 cm above the bottom. The same device was used to withdraw samples during storage. […]
(§5) Radial growth of the cultures in controls and treated samples were evaluated daily by measuring the surface area of the plate occupied by the colony during incubation or by measuring the length of the colony. […] Each assay was tested in triplicate and the area means calculated were analyzed statistically by analysis of variance. The delay in fungal growth was expressed as direct radial growth of cultures in cm^2 or cm as a percentage of colony growth by comparing samples exposed to the anti-fungal treatments with the controls. […]

[4] = system: Colletotrichum acutatum; assay: Growth of C. acutatum exposed to volatile vapour in closed jars at 23° C.; details: 7 days at 23° C.; for concentration that completely inhibited / avoided C. acutatum growth: headspace concentration
Description: as §2, §3, §4, §5

[5] = system: Aspergillus Niger; assay: Growth of Aspergillus niger in vitro in the presence of pure volatiles; format: cell-based; details: 4 μL of volatile, after 7 days at room temperature
Description: as §1

[6] = system: Botrytis cinerea; assay: Growth of B. cinerea exposed to volatile vapour in closed jars at 23° C.; details: 7 days at 23° C.
Description: as §2, §3, §4, §5

SMILES	Penicillium growth ([1]; 1 μL of volatile, 1 week at 23° C.)	ORL-MAM LD50 [2] [mg/kg]	concentration that completely inhibited / avoided A. alternata growth [3] [μg/mL air]	concentration that completely inhibited / avoided C. acutatum growth [4] [μg/mL air]	A. niger delay in growth [5]	prevention of B. cinerea growth ([6]; any amount tested)	Penicillium fungal development delayed ([1]; insertion of 4 μL of volatile)	Penicillium fungal development delayed ([1]; insertion of 6 μL of volatile) [%]	concentration that completely inhibited A. alternata growth, equivalent ppm of volatile [3] [ppm]	concentration that completely inhibited C. acutatum growth, equivalent ppm of volatile [4] [ppm]	concentration that completely inhibited B. cinerea growth, equivalent ppm of volatile [6] [ppm]	concentration that completely inhibited B. cinerea growth ([6]; headspace concentration) [μg/mL air]
CCC/C=C/C=O [2E-hexenal]	not able to grow											
CC=O [acetaldehyde]		250	0.10	0.44	over 66%	able to prevent						
CCCCCC=O [hexanal]			1.91	0.91			over 18%	> 74	7	1.5	4	1.05
